Experimental data published in ChEMBL document CHEMBL5331089, “Mucormycosis: A hidden mystery of fungal infection, possible diagnosis, treatment and development of new therapeutic agents” (Eur J Med Chem, 2023).
In brackets after ≈: the same amount, converted by molar mass.

Tests used:
[1] = system: Syncephalastrum racemosum; test: Antifungal activity against Syncephalastrum racemosum RCMB 016001 assessed as zone of inhibition measured after 24 hrs; format: functional
[2] = system: Syncephalastrum racemosum; test: Antifungal activity against Syncephalastrum racemosum assessed as fungal growth inhibition measured for 24 to 24 hrs by agar well diffusion assay; format: functional, organism-based
[3] = system: Rhizomucor pusillus; test: Antifungal activity against Rhizomucor pusillus clinical isolate assessed as fungal growth inhibition measured after 48 hrs by microtitre plate reader analysis; format: functional
[4] = system: Rhizomucor pusillus; test: Antifungal activity against Rhizomucor pusillus CN(M)231 assessed as fungal growth inhibition measured after 48 hrs by microtitre plate reader assay; format: functional
[5] = system: Rhizopus arrhizus; test: Antifungal activity against Rhizopus oryzae clinical isolate assessed as fungal growth inhibition by checkerboard broth microdilution assay; format: functional
[6] = system: Rhizopus arrhizus; test: Antifungal activity against Rhizopus oryzae clinical isolate assessed as fungal growth inhibition measured after 24 to 72 hrs by microtitre plate reader analysis; format: functional; conditions: time 24-72 hrs
[7] = system: Rhizopus arrhizus; test: Antifungal activity against Rhizopus oryzae CBS 109939 assessed as fungal growth inhibition by checkerboard broth microdilution assay; format: functional
[8] = system: Rhizopus arrhizus; test: Antifungal activity against Rhizopus oryzae clinical isolate RO-969 assessed as fungal growth inhibition measured after 24 hrs; format: functional
[9] = system: Rhizopus arrhizus; test: Antifungal activity against Rhizopus oryzae clinical isolate RO-275 assessed as fungal growth inhibition measured after 24 hrs; format: functional
[10] = system: Rhizopus arrhizus; test: Antifungal activity against Rhizopus oryzae clinical isolate RO-449 assessed as fungal growth inhibition measured after 24 hrs; format: functional
[11] = system: Rhizopus stolonifer; test: Antifungal activity against Rhizopus stolonifer SZMC 11101 assessed as fungal growth inhibition measured after 24 hrs by microtitre plate reader assay; format: functional
[12] = system: Syncephalastrum racemosum; test: Antifungal activity against Syncephalastrum racemosum SZMC 2011 assessed as fungal growth inhibition measured after 24 hrs by microtitre plate reader assay; format: functional
[13] = system: Mycotypha africana; test: Antifungal activity against Mycotypha africana NRRL 2978 assessed as fungal growth inhibition measured after 24 hrs by microtitre plate reader assay; format: functional
[14] = system: Mucor circinelloides; test: Antifungal activity against Mucor circinelloides MS 12 assessed as fungal growth inhibition measured after 48 hrs by plate reader assay; format: functional
[15] = system: Rhizopus arrhizus; test: Antifungal activity against Rhizopus arrhizus assessed as fungal growth inhibition; format: functional
[16] = system: Absidia; test: Antifungal activity against Absidia assessed as fungal growth inhibition measured upto 48 hrs by spectrophotometric analysis; format: functional
[17] = system: Mucor circinelloides; test: Antifungal activity against Mucor circinelloides assessed as fungal growth inhibition measured at 36 to 48 hrs; format: functional; conditions: time 36-48 hrs
[18] = system: Rhizomucor miehei; test: Antifungal activity against Rhizomucor miehei CBS 360.92 assessed as fungal growth inhibition measured after 48 hrs by microtitre plate reader assay; format: functional
[19] = system: Lichtheimia corymbifera; test: Antifungal activity against Absidia corymbifera SZMC 2010 assessed as fungal growth inhibition measured after 48 hrs by microtitre plate reader assay; format: functional
[20] = system: Rhizopus arrhizus; test: Antifungal activity against Rhizopus oryzae clinical isolate assessed as fungal growth inhibition; format: functional
[21] = system: Rhizopus homothallicus; test: Antifungal activity against Rhizopus homothallicus clinical isolate assessed as fungal growth inhibition; format: functional
[22] = system: Mucor circinelloides; test: Antifungal activity against Mucor circinelloides clinical isolate assessed as fungal growth inhibition; format: functional
[23] = system: Cunninghamella bertholletiae; test: Antifungal activity against Cunninghamella bertholletiae clinical isolate assessed as fungal growth inhibition; format: functional
[24] = system: Rhizomucor pusillus; test: Antifungal activity against environmental and clinical isolate Rhizomucor pusillus assessed as fungal growth inhibition measured after 24 to 48 hrs by plate reader assay; format: functional; conditions: time 24-48 hrs
[25] = system: Rhizomucor miehei; test: Antifungal activity against environmental and clinical isolate Rhizomucor miehei assessed as fungal growth inhibition measured after 24 to 48 hrs by plate reader assay; format: functional; conditions: time 24-48 hrs
[26] = system: Mucorales; test: Antifungal activity against Mucorales assessed as fungal growth inhibition measured 24 to 48 hrs; format: functional; conditions: time 24-48 hrs
[27] = system: Rhizomucor pusillus; test: Antifungal activity against Rhizomucor pusillus assessed as fungal growth inhibition measured at 36 to 48 hrs; format: functional; conditions: time 36-48 hrs
[28] = system: Rhizopus arrhizus; test: Antifungal activity against Rhizopus oryzae CBS 112.07 assessed as fungal growth inhibition measured after 48 hrs by microtitre plate reader assay; format: functional
[29] = system: Rhizopus arrhizus; test: Antifungal activity against Rhizopus oryzae assessed as fungal growth inhibition at 12.5 ug/ml measured after 24 hrs by microtiter plate assay relative to control; format: functional
[30] = system: Mucor circinelloides; test: Antifungal activity against Mucor circinelloides assessed as fungal growth inhibition at 100 ug/ml measured after 24 hrs by microtiter plate assay relative to control; format: functional
[31] = system: Phycomyces blakesleeanus; test: Antifungal activity against Phycomyces blakesleeanus assessed as fungal growth inhibition at 6.26 ug/ml measured after 24 hrs by microtiter plate assay relative to control; format: functional
[32] = Antifungal activity against Rhizopus microsporus var. oligosporus NRRL 514 assessed as fungal growth inhibition measured after 48 hrs by microtitre plate reader assay; format: functional

CCOC(=O)N1C/C(=C\c2ccc(Cl)cc2)C(=O)[C@@]2(C1)[C@H](c1ccc(Cl)cc1)[C@H]1CCCN1[C@]21C(=O)Nc2ccccc21
inhibition zone (IZ) [1]: 39.46 mm

C[C@@H]1[C@H](O)[C@@H](C)/C=C/C=C/C=C/C=C/C=C/C=C/C=C/[C@H](O[C@@H]2O[C@H](C)[C@@H](O)[C@H](N)[C@@H]2O)C[C@@H]2O[C@](O)(C[C@@H](O)C[C@@H](O)[C@H](O)CC[C@@H](O)C[C@@H](O)CC(=O)O[C@H]1C)C[C@H](O)[C@H]2C(=O)O [AMPHOTERICIN B]
inhibition zone (IZ) [1]: 22 mm
IC50 [2]: 14.3 µg/mL (≈ 15.4 µM)
MIC ([2]; time 24-24 hrs): 1.95 µg/mL (≈ 2.11 µM)
MIC [3]: 2 µg/mL (≈ 2.16 µM)
MIC90 [3]: 1 µg/mL (≈ 1.08 µM)
MIC [4]: 1 µg/mL (≈ 1.08 µM)
MIC [5]: 2 µg/mL

CC(C)c1c(C(=O)Nc2ccccc2)c(-c2ccccc2)c(-c2ccc(F)cc2)n1CC[C@@H](O)C[C@@H](O)CC(=O)O [ATORVASTATIN]
MIC [6]: 32 µg/mL (≈ 57.3 µM)
MIC [7]: 32 µg/mL
MIC [8]: 64 µg/mL (≈ 115 µM)
MIC [9]: 64 µg/mL (≈ 115 µM)
MIC [10]: 64 µg/mL (≈ 115 µM)
MIC [11]: 64 µg/mL (≈ 115 µM)
MIC [12]: 32 µg/mL (≈ 57.3 µM)
MIC [13]: 8 µg/mL (≈ 14.3 µM)
MIC [14]: 16 µg/mL (≈ 28.6 µM)

OC(Cn1cncn1)(Cn1cncn1)c1ccc(F)cc1F [FLUCONAZOLE]
inhibition zone (IZ) [1]: 22 mm

Nc1c(-c2cc(Cc3ccc(COc4ccccn4)cc3)no2)ccc[n+]1COP(=O)([O-])O [FOSMANOGEPIX]
MEC [15]: 0.25 µg/mL

CCC(C)n1ncn(-c2ccc(N3CCN(c4ccc(OCC5COC(Cn6cncn6)(c6ccc(Cl)cc6Cl)O5)cc4)CC3)cc2)c1=O (stereo unspecified) [ITRACONAZOLE]
MIC [16]: 0.03 µg/mL (≈ 0.0425 µM)
MIC [17]: > 8 µg/mL

CC[C@H](C)C(=O)O[C@H]1C[C@@H](C)C=C2C=C[C@H](C)[C@H](CC[C@@H](O)C[C@@H](O)CC(=O)O)[C@H]21 [LOVASTATIN ACID]
MIC90 [4]: 11 µg/mL (≈ 26 µM)
MIC90 [18]: 11 µg/mL (≈ 26 µM)
MIC90 [19]: 11 µg/mL (≈ 26 µM)

CC[C@H](C)C(=O)O[C@H]1C[C@@H](C)C=C2C=C[C@H](C)[C@H](CC[C@@H]3C[C@@H](O)CC(=O)O3)[C@H]21 [LOVASTATIN]
MIC [6]: 128 µg/mL (≈ 316 µM)
MIC90 [4]: 3.6 µg/mL (≈ 8.9 µM)
MIC [7]: 128 µg/mL
MIC [20]: 32.6 µg/mL (≈ 80.5 µM)
MIC [21]: 40 µg/mL (≈ 98.9 µM)
MIC [22]: 16 µg/mL (≈ 39.6 µM)
MIC [23]: 32 µg/mL (≈ 79.1 µM)
MIC [12]: 16 µg/mL (≈ 39.6 µM)
MIC [24]: 1 µg/mL (≈ 2.47 µM)
MIC [25]: 64 µg/mL (≈ 158 µM)

CC[C@@H]([C@H](C)O)n1ncn(-c2ccc(N3CCN(c4ccc(OC[C@@H]5CO[C@@](Cn6cncn6)(c6ccc(F)cc6F)C5)cc4)CC3)cc2)c1=O [POSACONAZOLE]
MIC [26]: 1 µg/mL (≈ 1.43 µM)
MIC [27]: > 8 µg/mL

CC(C)c1nc(N(C)S(C)(=O)=O)nc(-c2ccc(F)cc2)c1/C=C/[C@@H](O)C[C@@H](O)CC(=O)O [ROSUVASTATIN]
MIC90 [28]: 96 µg/mL (≈ 199 µM)
MIC90 [4]: 11 µg/mL (≈ 22.8 µM)
MIC90 [18]: 11 µg/mL (≈ 22.8 µM)
MIC90 [19]: 33 µg/mL (≈ 68.5 µM)
MIC [11]: 64 µg/mL (≈ 133 µM)
MIC [12]: 32 µg/mL (≈ 66.5 µM)
MIC [13]: 8 µg/mL (≈ 16.6 µM)
MIC [14]: 32 µg/mL (≈ 66.5 µM)

CCC(C)(C)C(=O)O[C@H]1C[C@@H](C)C=C2C=C[C@H](C)[C@H](CC[C@@H]3C[C@@H](O)CC(=O)O3)[C@H]21 [SIMVASTATIN]
MIC90 [4]: 11 µg/mL (≈ 26.3 µM)
MIC90 [19]: 96 µg/mL (≈ 229 µM)
MIC [7]: 64 µg/mL
MIC [12]: 8 µg/mL (≈ 19.1 µM)

CO[C@H]1C[C@@H]2CC[C@@H](C)[C@@](O)(O2)C(=O)C(=O)N2CCCC[C@H]2C(=O)O[C@H]([C@H](C)C[C@@H]2CC[C@@H](O)[C@H](OC)C2)CC(=O)[C@H](C)/C=C(\C)[C@@H](O)[C@@H](OC)C(=O)[C@H](C)C[C@H](C)/C=C/C=C/C=C/1C [SIROLIMUS]
inhibition at 12.5 µg/mL [29]: ≤ 80%
inhibition at 100 µg/mL [30]: ≤ 80%
inhibition at 6.26 µg/mL [31]: ≤ 80%

CCC(C)(C)C(=O)O[C@H]1C[C@@H](C)C=C2C=C[C@H](C)[C@H](CC[C@@H](O)C[C@@H](O)CC(=O)O)[C@H]21 [TENIVASTATIN]
MIC90 [4]: 1.2 µg/mL (≈ 2.75 µM)
MIC90 [19]: 11 µg/mL (≈ 25.2 µM)
MIC90 [32]: 33 µg/mL (≈ 75.6 µM)

C[C@@H](c1ncncc1F)[C@](O)(Cn1cncn1)c1ccc(F)cc1F [VORICONAZOLE]
MIC [17]: > 8 µg/mL
MIC [27]: > 8 µg/mL
